Laboratory results from article PMC6120666 (The EMBO Journal, 2018).

Legend:
recombinant RIPK1 = target: T1, recombinant RIPK1 (Homo sapiens, UniProt Q13546); test: RIPK1 ADPGlo kinase assay; type: biochemical; conditions: concentrations up to 1 µM
T1 construct: made in house
Protocol: Cell viability was determined using CellTiter‐Glo assay (Promega). […] Kinase activities were determined using ADPGlo assay (Promega). • Structure of the active conformation of RIPK2 kinase domain in complex with AMP‐PNP (PDB ID: 5AR3). Figure depicts locations of the adenine and deep pockets. […] Key residues discussed in the text are shown as sticks (Lys/Glu Glu‐in bond—bottom left, catalytic Asp residues (Asp146/Asp164)—bottom right, R‐spine—right). P‐loop of CSLP18 structure is shown in yellow. Structured segment of activation segment (AS) observed in active conformation structures is shown in red. • Structure of RIPK2 kinase domain (gray ribbons) in complex with CSLP18 (orange) (PDB ID 6FU5). Sticks are shown for residues in the vicinity of the cavity surrounding the key inhibitor position R1. A 2Fo‐Fc electron density map contoured at 1 sigma is shown for the inhibitor and the residues lining the key region around inhibitor R^1 position. • Molecular docking model of RIPK2 kinase domain in complex with CSLP37 (yellow) based on RIPK2/CSLP18 structure (Fig 3D). […] Data information: Data in (A–C, G) represent the mean ± SEM of three independent experiments. **P < 0.01. Two‐way ANOVA was used to determine statistical significance. […]

THP1Blue cells, NOD2 = test: THP1Blue NF-κB-SEAP reporter assay, MDP (NOD2); type: cell-based; conditions: Homo sapiens; MDP 10 μg/ml; read-out: THP1-Blue NF-κB Inhibition IC50 (MDP)
Protocol: For HEKBlue assay, cells were seeded into clear 96‐well plates at 7.5 × 10^3 cells/well and allowed to attach for 48 h. On the day of the experiment, media was changed to 100 μl of HEKBlue detection media (InvivoGen). Inhibitors were diluted and added in 0.5 μl DMSO 15 min prior to the addition of 1 ng/ml L18‐MDP (InvivoGen). After 8–9 h, absorbance at 620 nm was measured using Victor3V plate reader (Perkin Elmer, Waltham, MA). Values of media‐only wells were subtracted and %inhibition for each compound concentration relative to the DMSO/L18‐MDP‐treated controls was calculated. […] After induction, 20 μl of media was mixed with 180 μl of QUANTI‐Blue reagent (InvivoGen) and incubated at 37°C for 3–4 h, followed by absorbance measurement at 620 nm. IC50 values were calculated as described for HEKBlue assay. […]
For HEKBlue assay, cells were seeded into clear 96 well plates at 7.5x10^3 cells/well and allowed to attach for 48 h. […] After 8-9 h, absorbance at 620 nm was measured using Victor3V plate reader (Perkin Elmer, Waltham, MA). Values of media-only wells were subtracted and %inhibition for each compound concentration relative to the DMSO/L18-MDP-treated controls were calculated.
Inhibition values + StDev were fitted by non-linear regression using Prism software (GraphPad Software, La Jolla, CA) to calculate IC50 values. […] IC50 values were calculated as described for HEKBlue assay. […]

T1 sequence (Q13546 whole entry, species assumed): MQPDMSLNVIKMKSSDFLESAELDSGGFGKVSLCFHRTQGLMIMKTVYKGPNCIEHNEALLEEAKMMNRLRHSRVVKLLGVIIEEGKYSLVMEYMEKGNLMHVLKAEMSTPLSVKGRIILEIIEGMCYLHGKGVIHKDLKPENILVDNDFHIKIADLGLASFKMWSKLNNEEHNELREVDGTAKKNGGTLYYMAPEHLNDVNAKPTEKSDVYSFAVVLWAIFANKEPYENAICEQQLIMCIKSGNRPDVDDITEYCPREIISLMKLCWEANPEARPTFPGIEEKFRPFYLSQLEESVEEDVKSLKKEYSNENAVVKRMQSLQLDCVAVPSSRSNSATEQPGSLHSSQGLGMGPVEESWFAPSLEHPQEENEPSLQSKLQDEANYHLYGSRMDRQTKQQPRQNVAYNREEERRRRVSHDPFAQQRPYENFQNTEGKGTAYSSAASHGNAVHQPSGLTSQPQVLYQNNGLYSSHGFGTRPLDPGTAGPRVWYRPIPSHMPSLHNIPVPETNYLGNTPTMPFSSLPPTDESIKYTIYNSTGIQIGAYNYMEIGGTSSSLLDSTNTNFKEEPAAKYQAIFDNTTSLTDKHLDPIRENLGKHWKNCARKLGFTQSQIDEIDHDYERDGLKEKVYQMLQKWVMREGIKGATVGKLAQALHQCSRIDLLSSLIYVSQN

Row | Compound | inhibitory activity against RIPK1 (recombinant RIPK1) | IC50 (THP1Blue cells, NOD2) [µM]
1 | CCCS(=O)(=O)Nc1cc(-c2cc(-c3ccc(N4CCNCC4)cc3)cnc2N)cc(F)c1OC [CSLP37] | no inhibitory activity | 0.0225 ± 0.0021
2 | CCCS(=O)(=O)Nc1cc(-c2cc(-c3ccc(N4CCNCC4)cc3)cnc2N)cc(OC)c1OC [CSLP43] | no inhibitory activity | 0.00134 ± 8e-05
